Legend:
[1] = biological target: T1, Factor B enzyme (recombinant human complement factor B protein, as CVF:Bb complex) (Homo sapiens, UniProt P00751); settings: biological evaluation in Application No. WO2022143845; cited from earlier work
T1 construct: host or cells: HD CHO-S cells, pcDNA3.4 vector

[2] = Influencing factor stability (open flasks, light, high temperature, high humidity, 30 days)
[3] = DVS (dynamic vapor sorption) hygroscopicity testing; format: physicochemical
Experimental: DVS refers to dynamic vapor sorption: Surface Measurement Systems instrinsic was adopted; the humidity started at 50%, the humidity range investigated was 0%-95%, and the humidity was increased in increments of 10%; the criterion was that each gradient mass change dM/dT is less than 0.002%, TMAX 360 min, two cycles.

[4] = Long-term/accelerated stability (sealed, 25° C./60% RH and 40° C./75% RH)
[5] = Light exposure (4500 Lux), 5 days, open flask
[6] = Light exposure (4500 Lux), 10 days, open flask
[7] = Light exposure (4500 Lux), 30 days, open flask
[8] = light exposure (4500 Lux), 40° C. and 60° C., high humidity RH 75% and 92.5%, 30 days
[9] = 25° C., 60% RH, sealed, 1 month
[10] = 25° C., 60% RH, sealed, 2 months
[11] = 25° C., 60% RH, sealed, 3 months
[12] = 25° C., 60% RH, sealed, 6 months
[13] = 25° C./60% RH and 40° C./75% RH, 6 months
[14] = 40° C., 75% RH, sealed, 1 month
[15] = 40° C., 75% RH, sealed, 2 months
[16] = 40° C., 75% RH, sealed, 3 months
[17] = 40° C., 75% RH, sealed, 6 months

T1 sequence (P00751 260-764 limits assumed): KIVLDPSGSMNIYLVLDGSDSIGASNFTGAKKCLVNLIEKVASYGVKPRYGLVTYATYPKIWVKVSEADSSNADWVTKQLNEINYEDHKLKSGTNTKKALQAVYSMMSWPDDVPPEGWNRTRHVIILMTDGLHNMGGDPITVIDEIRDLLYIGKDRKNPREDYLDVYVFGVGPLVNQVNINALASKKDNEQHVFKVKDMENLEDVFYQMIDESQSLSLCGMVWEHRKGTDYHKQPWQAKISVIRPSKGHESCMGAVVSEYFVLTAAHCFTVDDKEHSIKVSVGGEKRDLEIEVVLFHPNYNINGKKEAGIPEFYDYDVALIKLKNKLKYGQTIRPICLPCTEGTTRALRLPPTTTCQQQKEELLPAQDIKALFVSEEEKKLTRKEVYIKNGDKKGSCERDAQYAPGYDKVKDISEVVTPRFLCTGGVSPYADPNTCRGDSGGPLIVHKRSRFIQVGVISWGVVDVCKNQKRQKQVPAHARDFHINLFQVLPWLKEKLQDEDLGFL
T1 sequence (Q91132 23-649 partner limits assumed): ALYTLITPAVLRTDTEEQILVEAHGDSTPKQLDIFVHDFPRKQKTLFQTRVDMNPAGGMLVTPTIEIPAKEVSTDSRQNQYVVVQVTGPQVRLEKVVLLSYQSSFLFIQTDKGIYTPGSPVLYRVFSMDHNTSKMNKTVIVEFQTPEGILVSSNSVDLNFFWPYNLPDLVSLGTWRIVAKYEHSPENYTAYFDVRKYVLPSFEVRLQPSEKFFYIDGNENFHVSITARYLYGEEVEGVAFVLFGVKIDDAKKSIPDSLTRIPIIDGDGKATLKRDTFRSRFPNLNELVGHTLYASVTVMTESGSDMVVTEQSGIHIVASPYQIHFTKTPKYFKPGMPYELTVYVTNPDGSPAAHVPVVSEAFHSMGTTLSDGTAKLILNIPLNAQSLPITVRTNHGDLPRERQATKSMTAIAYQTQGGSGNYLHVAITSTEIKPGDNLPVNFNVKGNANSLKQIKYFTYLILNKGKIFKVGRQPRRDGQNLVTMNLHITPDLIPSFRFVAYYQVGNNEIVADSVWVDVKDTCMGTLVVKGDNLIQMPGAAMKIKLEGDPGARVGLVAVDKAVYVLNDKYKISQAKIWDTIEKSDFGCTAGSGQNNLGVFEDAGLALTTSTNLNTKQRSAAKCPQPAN
T1 sequence (Q91132 733-984 partner limits assumed): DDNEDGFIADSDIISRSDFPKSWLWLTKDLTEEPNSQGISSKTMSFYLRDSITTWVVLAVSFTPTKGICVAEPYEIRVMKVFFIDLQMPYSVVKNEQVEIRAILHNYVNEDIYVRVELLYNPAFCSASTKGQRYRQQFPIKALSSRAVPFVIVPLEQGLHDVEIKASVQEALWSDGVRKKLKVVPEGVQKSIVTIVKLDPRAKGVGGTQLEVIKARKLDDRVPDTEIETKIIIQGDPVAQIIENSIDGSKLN
T1 sequence (Q91132 1264-1642 partner limits assumed): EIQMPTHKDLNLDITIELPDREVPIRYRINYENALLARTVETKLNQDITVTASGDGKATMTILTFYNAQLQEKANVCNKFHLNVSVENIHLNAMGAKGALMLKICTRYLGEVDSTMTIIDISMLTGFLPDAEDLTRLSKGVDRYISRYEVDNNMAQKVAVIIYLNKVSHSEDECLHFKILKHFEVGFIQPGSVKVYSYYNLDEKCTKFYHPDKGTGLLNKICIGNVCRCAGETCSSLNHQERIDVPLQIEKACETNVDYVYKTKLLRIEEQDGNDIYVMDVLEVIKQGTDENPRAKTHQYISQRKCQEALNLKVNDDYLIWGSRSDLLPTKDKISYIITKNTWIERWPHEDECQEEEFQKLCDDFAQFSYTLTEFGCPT

## CCO[C@H]1C[C@H]2CC[C@@](c3ccc(C(=O)O)cc3)(C1)N2Cc1c(OC)cc(C)c2[nH]ccc12 [compound I, 4-((1S,3S,5R)-3-ethoxy-8-((5-methoxy-7-methyl-1H-indol-4-yl)methyl)-8-azabicyclo[3.2.1]octan-1-yl)benzoic acid]
[1]
  inhibitory effect on the enzyme activity of Factor B: relatively good inhibitory effect

## CCO[C@H]1C[C@H]2CC[C@@](c3ccc(C(=O)O)cc3)(C1)N2Cc1c(OC)cc(C)c2[nH]ccc12.Cc1ccc(S(=O)(=O)O)cc1 [crystal form I of the p-toluenesulfonate, 4-((1S,3S,5R)-3-ethoxy-8-((5-methoxy-7-methyl-1H-indol-4-yl)methyl)-8-azabicyclo[3.2.1]octan-1-yl)benzoic acid-p-toluenesulfonate]
[2]; 40° C., 5 days, open flask
  Color and state: White solid
  Purity %: 99.8%
  Salt form: No change
[2]; 40° C., 10 days, open flask
  Color and state: White solid
  Purity %: 99.7%
  Salt form: No change
[2]; 40° C., 30 days, open flask
  Color and state: White solid
  Purity %: 99.5%
  Salt form: No change
[2]; 60° C., 5 days, open flask
  Color and state: White solid
  Purity %: 99.8%
  Salt form: No change
[2]; 60° C., 10 days, open flask
  Color and state: White solid
  Purity %: 99.8%
  Salt form: No change
[2]; 60° C., 30 days, open flask
  Color and state: White solid
  Purity %: 99.7%
  Salt form: No change
[2]; 75% RH, 5 days, open flask
  Color and state: White solid
  Purity %: 99.9%
  Salt form: No change
[2]; 75% RH, 10 days, open flask
  Color and state: White solid
  Purity %: 99.9%
  Salt form: No change
[2]; 75% RH, 30 days, open flask
  Color and state: White solid
  Purity %: 99.9%
  Salt form: No change
[2]; 92.5% RH, 5 days, open flask
  Color and state: White solid
  Purity %: 100.0%
  Salt form: No change
[2]; 92.5% RH, 10 days, open flask
  Color and state: White solid
  Purity %: 100.0%
  Salt form: No change
[2]; 92.5% RH, 30 days, open flask
  Color and state: White solid
  Purity %: 99.9%
  Salt form: No change
[2]; Initial, 0 days
  Color and state: White solid
  Purity %: 100.0%
[2]; [5]
  Color and state: White solid
  Purity %: 99.9%
  Salt form: No change
[2]; [6]
  Color and state: White solid
  Purity %: 99.9%
  Salt form: No change
[2]; [7]
  Color and state: White solid
  Purity %: 99.7%
  Salt form: No change
[2]; [8]
  chemical stability: good
  physical stability: good
[3]; DVS, 25° C. and 60% RH
  hygroscopic weight gain under normal storage conditions: about 1.22%
[3]; DVS, 70% RH
  hygroscopic weight gain under accelerated experimental conditions: about 1.37%
[3]; DVS, 90% RH
  hygroscopic weight gain under extreme conditions: about 1.87%
[3]; XRPD after DVS
  crystal form re-identification after DVS testing: did not change
[4]; [9]
  Purity %: 100.0%
  Salt form: No change
[4]; [10]
  Purity %: 100.0%
  Salt form: No change
[4]; [11]
  Purity %: 100.0%
  Salt form: No change
[4]; [12]
  Purity %: 100.0%
  Salt form: No change
[4]; [13]
  chemical stability: relatively good
  physical stability: relatively good
[4]; [14]
  Purity %: 100.0%
  Salt form: No change
[4]; [15]
  Purity %: 99.8%
  Salt form: No change
[4]; [16]
  Purity %: 99.8%
  Salt form: No change
[4]; [17]
  Purity %: 99.7%
  Salt form: No change
[4]; Initial
  Purity %: 100.0%

— patent US20250382287A1, “PHARMACEUTICALLY ACCEPTABLE SALT AND CRYSTAL FORM OF NITROGEN-CONTAINING BRIDGE HETEROCYCLIC DERIVATIVE, AND METHOD FOR PREPARING SAME” (JIANGSU HENGRUI PHARMACEUTICALS CO., LTD., priority 2022, published 2025)
